These results are taken from patent US7279582B2, “Retroviral protease inhibiting compounds” (priority 1995, dated 2007).

One data set deals with uninfected MT4 cells. The data set is classed as cell-based. The settings on record: n=4 duplicate determinations, read-out: LC50 (the source's name). The text has this: (§1) The anti-HIV activity of the compound of the invention can be determined in MT4 cells according to the following procedure. MT4 cells were infected with cell-free supernatant of HIVIIIB (previously frozen with known 50% tissue culture infectious dose (TCID50) at 0.003 multiplicity of infection (MOI) for one hour. After one hour infection, cells were washed twice to remove residual viruses, resuspended in culture media and seeded into 96-well tissue culture plates at 1×10^4 cells per well with various half-log dilutions of compounds. Uninfected cells are included as toxicity and cell controls. RPMI 1640 media (Gibco) with 10% fetal bovine serum were used as culture media. Various concentrations of human serum (Sigma) 50%, 25% and 12.5% were added to culture media resulting in final concentration of 60%, 35% and 22.5% total serum. All assay plates were incubated in 37 deg. cent. incubator for 5 days. MTT (sigma, 5 mg/ml stock in PBS) was added to all wells at 25 ul per well, incubate for 4 hours. 20% SDS with 0.02 N HCI in water was added at 50 ul per well to lyse cells. Plates incubated overnight for complete lyses were read on a microtitre plate reader at 570/650 nm wavelengths to determine cell optical density (O.D.). Raw data were analysed for percent inhibition by the following formula: O.D. test well−O.D. virus control×100 O.D. cell control−O.D. virus control The 50% effective concentration (EC50) was calculated by the median effect equation (Chou, 1975, Proc. Int. Cong. Pharmacol. 6th p. 619) to determine the efficacy of compound. The 50% lethal concentration (LC50) was calculated using uninfected MT4 cells.
(§2) Under these conditions, the following data were obtained (n=4 duplicate determinations: […]

The test system of a further data set is HIVIIIB. Nature of the data set: Anti-HIV activity in MT4 cells infected with HIVIIIB (MTT readout). The data set is classed as cell-based. Particulars: 0% plasma, 5 days, n=4 duplicate determinations.
Description: as §1, §2

For a further data set, the target named is HIV protease (Human immunodeficiency virus type 1 group M subtype B, UniProt P04585). In words: Fluorogenic assay for screening inhibitors of HIV protease. The data set is classed as biochemical. The settings on record: Inhibitor Concentration 0.5 nanomolar. Here is the method:
Fluorogenic Assay for Screening Inhibitors of HIV Protease
The inhibitory potency of the compound of the invention can be determined by the following method.
The compound of the invention is dissolved in DMSO and a small aliquot further diluted with DMSO to 100 times the final concentration desired for testing. The reaction is carried out in a 6×50 mm tube in a total volume of 300 microliters. The final concentrations of the components in the reaction buffer are: 125 mM sodium acetate, 1 M sodium chloride, 5 mM dithiothreitol, 0.5 mg/ml bovine serum albumin, 1.3 μM fluorogenic substrate, 2% (v/v) dimethylsulfoxide, pH 4.5. After addition of inhibitor, the reaction mixture is placed in the fluorometer cell holder and incubated at 30° C. for several minutes. The reaction is initiated by the addition of a small aliquot of cold HIV protease. The fluorescence intensity (excitation 340 nm, emmision 490 nM) is recorded as a function of time. The reaction rate is determined for the first six to eight minutes. The observed rate is directly proportional to the moles of substrate cleaved-per unit time. The percent inhibition is 100×(1−(rate in presence of inhibitor)/(rate in absence of inhibitor)).
Fluorogenic substrate: Dabcyl-Gaba-Ser-Gln-Asn-Tyr-Pro-lle-Val-Gln-EDANS wherein DABCYL=4-(4-dimethylamino-phenyl)azobenzoic acid, Gaba=γ-aminobutyric acid, and EDANS=5-((2-aminoethyl)amino)-naphthalene-1-sulfonic acid.

Where only a bound is given, the exact number is not on record here.

In general, IC50 refers to the concentration at which inhibition is half-maximal. Turning to `CC(C)[C@@H](C(=O)N[C@@H](Cc1ccccc1)C[C@H](O)[C@H](Cc1ccccc1)NC(=O)O[C@H]1CO[C@H]2OCC[C@H]21)N1CCNC1=O` [Example 5, (2S,3S,5S)-2-[(3R,3aS,6aR)-Bis-tetrahydrofuranyloxy]amino-3-hydroxy-5-[2S-(1-imidazolidin-2-onyl)-3-methylbutanoyl]amino-1,6-diphenylhexane], in the data set with uninfected MT4 cells, the CC50 was over 100000 nM. The molecule also showed an IC50 in the data set with HIVIIIB of 0.368 µM. Further, the “Percent Inhibition” value at HIV protease came out at 80.8%.

As to `Cc1cccc(C)c1OCC(=O)N[C@@H](Cc1ccccc1)[C@@H](O)C[C@H](Cc1ccccc1)NC(=O)[C@H](C(C)C)N1CCNC(=O)C1=O` [Example 29C, (2S,3S,5S)-2-(2,6-Dimethylphenoxyacetyl)amino-3-hydroxy-5-[2S-(1-piperazin-2,3-dionyl)-3-methylbutanoyl]amino-1,6-diphenylhexane], the CC50 in the data set with uninfected MT4 cells amounted to 56000 nM. Also, in the data set with HIVIIIB, the IC50 was 0.427 µM. Besides, on HIV protease, the “Percent Inhibition” value was 72.6%.

On to `CC(C)(C)[C@@H](C(=O)N[C@@H](Cc1ccccc1)C[C@H](O)[C@H](Cc1ccccc1)NC(=O)OCc1cncs1)N1CCNC1=O` [Example 7B, (2S,3S,5S)-2-(N-((5-Thiazolyl)-methoxycarbonyl)amino)-3-hydroxy-5-(2S-(1-imidazolidin-2-onyl)-3,3-dimethylbutanoyl)amino-1,6-diphenylhexane], for which the CC50 in the data set with uninfected MT4 cells is over 100000 nM. Besides, in the data set on HIVIIIB, inhibition was half-maximal at 0.204 µM (IC50). Moreover, the “Percent Inhibition” value at HIV protease came out at 67.1%.

`Cc1cccc(C)c1OCC(=O)N[C@@H](Cc1ccccc1)[C@@H](O)C[C@H](Cc1ccccc1)NC(=O)[C@H](C(C)C)N1CCNC1=O` [Example 1P, (2S,3S,5S)-2-(2,6-dimethylphenoxyacetyl)amino-3-hydroxy-5-[2S-(1-imidazolidin-2-onyl)-3-methyl-butanoyl]amino-1,6-diphenylhexane]: the CC50 with uninfected MT4 cells was found to be 41300 nM. In the data set on HIVIIIB, this molecule had an IC50 of 0.01 µM. Moreover, the “Percent Inhibition” value at HIV protease is listed as 92.6%.

Turning to `Cc1cccc(C)c1/C=C/C(=O)N[C@@H](Cc1ccccc1)[C@@H](O)C[C@H](Cc1ccccc1)NC(=O)[C@H](C(C)C)N1CCCNC1=O` (relative stereo) [Example 19E], in the data set on uninfected MT4 cells, the CC50 came to 18000 nM. In the data set on HIVIIIB, this molecule gave an IC50 of 0.395 µM. Also, the “Percent Inhibition” value on HIV protease was determined as 68.5%.

As for `CC(C)[C@@H](C(=O)N[C@@H](Cc1ccccc1)C[C@H](O)[C@H](Cc1ccccc1)NC(=O)OCc1cncs1)N1CCNC1=O` [Example 6F, (2S,3S,5S)-2-(N-((5-Thiazolyl)methoxycarbonyl)amino)-5-((2S-(1-imidazolidin-2-onyl)-3-methyl-butanoyl)-amino)-3-hydroxy-1,6-diphenylhexane], the CC50 in the data set on uninfected MT4 cells is over 100000 nM. Further, the IC50 in the data set with HIVIIIB came out at 0.193 µM. Further, at HIV protease, the “Percent Inhibition” value is 61.4%.

For the molecule `Cc1cccc(C)c1OCC(=O)N[C@@H](Cc1ccccc1)[C@@H](O)C[C@H](Cc1ccccc1)NC(=O)[C@H](C(C)C)N1CC=NNC1=O` [Example 30B, (2S,3S,5S)-2-(2,6-Dimethylphenoxyacetyl)amino-3-hydroxy-5[2S-(4-aza-4,5-dehydro-1-pyrimid-2-onyl)-3-methyl-butanoyl]amino-1,6-diphenylhexane], the CC50 in the data set with uninfected MT4 cells was determined as 18000 nM. Also, in the data set on HIVIIIB, the IC50 came to 0.003 µM. For the same molecule, the “Percent Inhibition” value at HIV protease amounted to 91.0%.

Regarding `Cc1cc(N)cc(C)c1OCC(=O)N[C@@H](Cc1ccccc1)[C@@H](O)C[C@H](Cc1ccccc1)NC(=O)[C@H](C(C)C)N1CCNC1=O` [Example 10F, (2S,3S,5S)-2-(4-Amino-2,6-dimethylphenoxyacetyl)amino-3-hydroxy-5-(2S-(1-imidazolidin-2-onyl)-3-methyl-butanoyl)amino-1,6-diphenylhexane], the CC50 in the data set with uninfected MT4 cells was 92000 nM. In the data set on HIVIIIB, this molecule came in with an IC50 of 0.047 µM. Also, on HIV protease, the “Percent Inhibition” value is 81.0%.

Turning to `Cc1cccc(C)c1OCC(=O)N[C@@H](Cc1ccccc1)[C@@H](O)C[C@H](Cc1ccccc1)NC(=O)[C@H](C(C)C)N1CCNNC1=O` [Example 26H, (2S,3S,5S)-2-(2,6-Dimethylphenoxyacetyl)amino-3-hydroxy-5[2S-(4-aza-1-tetrahydro-pyrimid-2-onyl)-3-methyl-butanoyl]amino-1,6-diphenylhexane], the CC50 with uninfected MT4 cells was 33000 nM. For the same molecule, the IC50 in the data set on HIVIIIB worked out at 0.015 µM. At HIV protease, the “Percent Inhibition” value amounted to 94.6%.

`Cc1cc(F)cc(C)c1OCC(=O)N[C@@H](Cc1ccccc1)[C@@H](O)C[C@H](Cc1ccccc1)NC(=O)[C@H](C(C)C)N1CCNC1=O` [Example 12B, (2S,3S,5S)-2-(4-Fluoro-2,6-dimethylphenoxyacetyl)amino-3-hydroxy-5-(2S-(1-imidazolidin-2-onyl)-3-methyl-butanoyl)amino-1,6-diphenylhexane]: the CC50 in the data set on uninfected MT4 cells stood at 19100 nM. Further, the IC50 in the data set with HIVIIIB amounted to 0.093 µM. Also, the “Percent Inhibition” value at HIV protease came to 76.8%.

On to `Cc1cccc(C)c1OCC(=O)N[C@@H](Cc1ccccc1)[C@@H](O)C[C@H](Cc1ccccc1)NC(=O)[C@H](C(C)C)N1CCNC1=S` [Example 9B, (2S,3S,5S)-2-(2,6-Dimethylphenoxyacetyl)amino-3-hydroxy-5-(2S-(1-imidazolidin-2-thionyl)-3-methylbutanoyl)amino-1,6-diphenylhexane], for which the CC50 with uninfected MT4 cells was determined as 19300 nM. Also, in the data set with HIVIIIB, the concentration for half-maximal inhibition (IC50) was found to be 0.272 µM. Further, the “Percent Inhibition” value at HIV protease is recorded as 62.6%.
